# Assay results reported in patent US7915291B2, “Hepatitis C virus inhibitors” (Bristol-Myers Squibb Company, priority 2002, dated 2011).
# Read-outs that look alike come from different tables or passages of the source.
# Legend:
# [1] = biological target: HCV NS3/4A protease complex, BMS strain (UniProt P27958, C1454S/C1711G, species not given/STRAIN_BMS); test: Recombinant HCV NS3/4A protease complex FRET peptide assay (BMS strain); assay type: biochemical, HCV genotype 1a
# Procedure, shortened: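 Percent inhibition taken from the linear-range fluorescence slope relative to uninhibited control, read kinetically for about 15 min at 25° C. Enzyme (2-3 nM, BMS NS3/4A complex, lysine-tailed, Ni-NTA purified) met compound for 1 min before 2 μM FRET depsipeptide substrate started cleavage.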
# [2] = test system: HCV replicon in Huh7 cells; test: HCV replicon cell-based assay; set-up: species or system HCV strain 1B; conditions: Hepatitis C virus, Huh-7; HCV replicon, Huh7 cells; read-out: EC50 range
# [3] = NS3/4A BMS strain; read-out: IC50 range
Structure (SMILES),"IC50 [1, 3]",EC50 [2],IC50 ([1]; read-out: IC50 range; NS3/4A BMS strain)
"C=CC1C[C@]1(NC(=O)[C@@H]1C[C@@H](Oc2nccc3cc(F)ccc23)CN1C(=O)[C@@H](NC(=O)OC(C)(C)C)C(C)(C)C)C(=O)NS(=O)(=O)C1CC1 (stereo partly drawn) [Compound 187, BOCNH-P3(L-tert-BuGly)-P2[(4R)-(6-fluoro isoquinolin-1-oxo)-S -proline]-P1(1R,2S Vinyl Acca)-CONHSO2-Cyclopropane]",< 100 nM,100 to 1000 nM,
C=C[C@@H]1C[C@]1(NC(=O)[C@@H]1CC(Oc2nccc3cc(OC)ccc23)CN1C(=O)[C@@H](NC(=O)NC(C)(C)CC(C)(C)C)C(C)(C)C)C(=O)NS(=O)(=O)C1CC1 (stereo partly shown) [Compound 81],< 100 nM,100 to 1000 nM,
"C=CC1C[C@]1(NC(=O)[C@@H]1C[C@@H](Oc2nccc3cc(C(=O)N(C)C)ccc23)CN1C(=O)[C@@H](NC(=O)OC(C)(C)C)C(C)(C)C)C(=O)NS(=O)(=O)C1CC1 (stereo partly drawn) [Compound 244, BOCNH-P3(L-t-BuGly)-P2-[(4R) -(6-carboxylic acid dimethylamideisoquinoline-1-oxo)-S-proline]-P1(1R,2S VinylAcca) -CONHSO2Cyclopropane]",< 100 nM,10000 to 100000 nM,
"C=CC1C[C@]1(NC(=O)[C@@H]1C[C@@H](Oc2ccnc3cc(C(F)(F)F)ccc23)CN1C(=O)[C@@H](NC(=O)OC(C)(C)C)C(C)(C)C)C(=O)NS(=O)(=O)C1CC1 (stereo partly drawn) [Compound 185, BOCNH-P3(L-tert-BuGly)-P2[(4R)-(7-trifluoromethyl quinolin-4-oxo)-S-proline]-P1(1R,2S Vinyl Acca)-CONHSO2-Cyclopropane]",< 100 nM,< 100 nM,
C=C[C@@H]1C[C@]1(NC(=O)[C@@H]1CC(Oc2nccc3cc(OC)ccc23)CN1C(=O)C([C@@H](C)CC)N(C)C(=O)OC(C)(C)C)C(=O)NS(=O)(=O)C1CC1 (stereo partly shown) [Compound 84],< 100 nM,100 to 1000 nM,
"C=CC1C[C@]1(NC(=O)[C@@H]1C[C@@H](Oc2cc(C(F)(F)F)nc3ccc(F)cc23)CN1C(=O)[C@@H](NC(=O)OC(C)(C)C)C(C)(C)C)C(=O)NS(=O)(=O)C1CC1 (stereo partly drawn) [Compound 238, BOCNH-P3(L-t-BuGly)-P2[(4R)-(2-trifluoro-6-fluoroquinoline-4-oxo)-S-proline]-P1(1R,2S VinylAcca)-CONHSO2Cyclopropane]",< 100 nM,100 to 1000 nM,
C=C[C@@H]1C[C@]1(NC(=O)[C@@H]1C[C@@H](Oc2nc(Cl)cc3cc(OC)ccc23)CN1C(=O)[C@@H](NC(=O)OC(C)(C)C)C(C)(C)C)C(=O)NS(=O)(=O)C1CC1 [Compound 40],< 100 nM,100 to 1000 nM,
C=CC1CC1(NC(=O)[C@@H]1C[C@@H](OCc2ccc3ccccc3c2)CN1C(=O)[C@@H](NC(=O)OC(C)(C)C)C(C)(C)C)C(=O)NS(C)(=O)=O (stereo partly shown) [Compound 454],100 to 1000 nM,1000 to 10000 nM,
C=C[C@@H]1C[C@]1(NC(=O)[C@@H]1C[C@@H](Oc2cc(-c3csc(NC(C)C)n3)nc3cc(OC)ccc23)CN1C(=O)[C@@H](NC(=O)OC(C)(C)C)C(C)(C)C)C(=O)NS(=O)(=O)C1CC1 [Compound 370],,1000 to 10000 nM,100 to 1000 nM
C=CC1C[C@]1(NC(=O)[C@@H]1C[C@@H](Oc2nc(-c3ccccc3N(C)C)cc3cc(OC)ccc23)CN1C(=O)[C@@H](NC(=O)OC(C)(C)C)C(C)(C)C)C(=O)NS(=O)(=O)C1CC1 (stereo partly shown) [Compound 329],< 100 nM,< 100 nM,
C=C[C@@H]1C[C@]1(NC(=O)[C@@H]1CC(Oc2nccc3cc(OC)ccc23)CN1C(=O)[C@H](CCC)N(C)C(=O)OC(C)(C)C)C(=O)NS(=O)(=O)C1CC1 (stereo partly shown) [Compound 88],1000 to 10000 nM,10000 to 100000 nM,
C=C[C@@H]1C[C@]1(NC(=O)[C@@H]1C[C@@H](Nc2nc(-c3ccccc3)cs2)CN1C(=O)[C@@H](NC(=O)OC(C)(C)C)C(C)(C)C)C(=O)NS(=O)(=O)C1CC1 [Compound 53],100 to 1000 nM,1000 to 10000 nM,
C=C[C@@H]1C[C@]1(NC(=O)[C@@H]1C[C@@H](Oc2nccc3cc(OC(F)(F)F)ccc23)CN1C(=O)[C@@H](NC(=O)OC(C)(C)C)C(C)(C)C)C(=O)NS(=O)(=O)C1CC1 [Compound 282],< 100 nM,100 to 1000 nM,
C=C[C@@H]1C[C@]1(NC(=O)[C@@H]1C[C@@H](Oc2nccc3cc(OC)ccc23)CN1C(=O)[C@@H](NC(=O)NC1CCCC1)[C@H](C)OC)C(=O)NS(=O)(=O)C1CC1 [Compound 103],< 100 nM,< 100 nM,
"C=CC1C[C@]1(NC(=O)[C@@H]1C[C@@H](Oc2nccc3cc(C(C)(C)C)ccc23)CN1C(=O)[C@@H](NC(=O)OC(C)(C)C)C(C)(C)C)C(=O)NS(=O)(=O)C1CC1 (stereo partly drawn) [Compound 191, BOCNH-P3(L-tert-BuGly)-P2[(4R)-(6-tert-butyl isoquinolin-1-oxo)-S-proline]-P1(1R,2S Vinyl Acca)-CONHSO2-Cyclopropane]",< 100 nM,100 to 1000 nM,
"C=CC1C[C@]1(NC(=O)[C@@H]1C[C@@H](Oc2nccc3cc(C)ccc23)CN1C(=O)[C@@H](NC(=O)OC(C)(C)C)C(C)(C)C)C(=O)NS(=O)(=O)C1CC1 (stereo partly drawn) [Compound 210, BOCNH-P3(L-tert-BuGly)-P2[(4R)-(6-methyl isoquinolin-1-oxo)-S -proline]-P1(1R,2S Vinyl Acca)-CONHSO2-Cyclopropane]",< 100 nM,< 100 nM,
"C=CC1C[C@]1(NC(=O)[C@@H]1C[C@@H](Oc2cnc3ccccc3n2)CN1C(=O)[C@@H](NC(=O)OC(C)(C)C)C(C)(C)C)C(=O)NS(=O)(=O)C1CC1 (stereo partly drawn) [Compound 237, BOCNH-P3(L-t-BuGly)-P2[(4R)-(quinoxaline-2-oxo)-S-proline]-P1(1R,2S VinylAcca)-CONHSO2Cyclopropane]",< 100 nM,100 to 1000 nM,
C=C[C@@H]1C[C@]1(NC(=O)[C@@H]1C[C@@H](Oc2nccc3c4c(ccc23)CCO4)CN1C(=O)[C@@H](NC(=O)OC(C)(C)C)C(C)(C)C)C(=O)NS(=O)(=O)C1CC1 [Compound 265],< 100 nM,< 100 nM,
C=CC1CC1(NC(=O)C1CC(Oc2nc(C3CC3)nc3cc(OC)c(OC)cc23)CN1C(=O)[C@@H](NC(=O)OC(C)(C)C)C(C)(C)C)C(=O)NS(=O)(=O)C(C)C (mixture of isomers) [Compound 46],100 to 1000 nM,1000 to 10000 nM,
"C=C[C@@H]1C[C@]1(NC(=O)[C@@H]1C[C@@H](Oc2ccnc3cc(OC)ccc23)CN1C(=O)[C@@H](NC(=O)OC(C)(C)C)C(C)(C)C)C(=O)NS(=O)(=O)C1CCC1 [Compound 374, BOCNH-P3(L-t -BuGly)-P2[(4R)-(7-methoxyquinoline-4-oxo)-S-proline]-P1(1R,2S Vinyl Acca)-CONHSO2-Cyclobutane]",< 100 nM,100 to 1000 nM,
C=C[C@@H]1C[C@]1(NC(=O)[C@@H]1C[C@@H](Oc2ncc(Cl)c3ccccc23)CN1C(=O)[C@@H](NC(=O)OC(C)(C)C)C(C)(C)C)C(=O)NS(=O)(=O)C1CC1 [Compound 281],< 100 nM,< 100 nM,
"C=CC1C[C@]1(NC(=O)[C@@H]1C[C@@H](Oc2nccc3c4c(c(SC)cc23)OCO4)CN1C(=O)[C@@H](NC(=O)OC(C)(C)C)C(C)(C)C)C(=O)NS(=O)(=O)C1CC1 (stereo partly drawn) [Compound 213, BOCNH-P3(L-t-BuGly)-P2[(4R)-(4-methylthio-1,3-dioxa-7-aza-cyclopenta[a]naphthalen-6-yloxy)-S-proline]-P1(1R,2S VinylAcca)-CONHSO2Cyclopropane]",< 100 nM,< 100 nM,
C=CC1C[C@]1(NC(=O)[C@@H]1C[C@@H](Oc2nccc(-c3cccs3)n2)CN1C(=O)[C@@H](NC(=O)CC1CC1)C(C)(C)C)C(=O)NS(=O)(=O)C1CC1 (stereo partly shown) [Compound 338],< 100 nM,1000 to 10000 nM,
